Reference: PubChem BioAssay (NCI)
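Dose response: 5 concentrations. Exposure: 48 h. Format: 96-well plates. Endpoint: linear interpolation; highest concentration if not reached. The concentration for 50% growth inhibition is given as GI50. TGI: concentration producing complete growth inhibition.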

How the values were obtained:
Experiment in all cases: DTP human tumour cell line panel, 48 h; in the data active = GI50 below about 0.43 µM; inactive = the rest
786-0 renal = test system: 786-0 renal
A498 renal = test system: A498 renal
A549 NSCLC = test system: A549 NSCLC
ACHN renal = test system: ACHN renal
BT-549 breast = test system: BT-549 breast
CAKI-1 renal = test system: CAKI-1 renal
CCRF-CEM leukemia = test system: CCRF-CEM leukemia
COLO 205 colon = test system: COLO 205 colon
DU-145 prostate = test system: DU-145 prostate
EKVX NSCLC = test system: EKVX NSCLC
HCC-2998 colon = test system: HCC-2998 colon
HCT-116 colon = test system: HCT-116 colon
HCT-15 colon = test system: HCT-15 colon
HL-60(TB) leukemia = test system: HL-60(TB) leukemia
HOP-62 NSCLC = test system: HOP-62 NSCLC
HOP-92 NSCLC = test system: HOP-92 NSCLC
HS 578T breast = test system: HS 578T breast
HT29 colon = test system: HT29 colon
IGROV1 ovarian = test system: IGROV1 ovarian
K-562 leukemia = test system: K-562 leukemia
KM12 colon = test system: KM12 colon
LOX IMVI melanoma = test system: LOX IMVI melanoma
M14 melanoma = test system: M14 melanoma
MALME-3M melanoma = test system: MALME-3M melanoma
MCF7 breast = test system: MCF7 breast
MDA-MB-231 breast = test system: MDA-MB-231 breast
MDA-MB-435 = test system: MDA-MB-435
MOLT-4 leukemia = test system: MOLT-4 leukemia
NCI-H226 lung = test system: NCI-H226 lung
NCI-H460 lung = test system: NCI-H460 lung
NCI-H522 lung = test system: NCI-H522 lung
NCI/ADR-RES ovarian = test system: NCI/ADR-RES ovarian
OVCAR-3 ovarian = test system: OVCAR-3 ovarian
OVCAR-4 ovarian = test system: OVCAR-4 ovarian
OVCAR-5 ovarian = test system: OVCAR-5 ovarian
OVCAR-8 ovarian = test system: OVCAR-8 ovarian
PC-3 prostate = test system: PC-3 prostate
RPMI-8226 leukemia = test system: RPMI-8226 leukemia
RXF 393 renal = test system: RXF 393 renal
SF-268 CNS = test system: SF-268 CNS
SF-295 CNS = test system: SF-295 CNS
SF-539 CNS = test system: SF-539 CNS
SK-MEL-2 melanoma = test system: SK-MEL-2 melanoma
SK-MEL-28 melanoma = test system: SK-MEL-28 melanoma
SK-MEL-5 melanoma = test system: SK-MEL-5 melanoma
SK-OV-3 ovarian = test system: SK-OV-3 ovarian
SN12C renal = test system: SN12C renal
SNB-19 CNS = test system: SNB-19 CNS
SNB-75 CNS = test system: SNB-75 CNS
SR leukemia = test system: SR leukemia
SW-620 colon = test system: SW-620 colon
T-47D breast = test system: T-47D breast
TK-10 renal = test system: TK-10 renal
U251 CNS = test system: U251 CNS
UACC-257 melanoma = test system: UACC-257 melanoma
UACC-62 melanoma = test system: UACC-62 melanoma
UO-31 renal = test system: UO-31 renal

CCNC(=O)N1CCc2cc(OC)c(OCCc3ccc(OC)cc3)cc2C1c1ccc(Cl)cc1C (centres undefined)
> 50100 nM: TGI (CAKI-1 renal)
> 40100 nM: TGI (U251 CNS)
> 21400 nM: TGI (HOP-92 NSCLC)
5810 nM: TGI (NCI/ADR-RES ovarian)
3950 nM: TGI (RPMI-8226 leukemia)
active: GI50 (786-0 renal) 421 nM | GI50 (CCRF-CEM leukemia) 382 nM | GI50 (HCT-116 colon) 86.6 nM | GI50 (HCT-15 colon) 85.3 nM | GI50 (K-562 leukemia) 92.4 nM | GI50 (LOX IMVI melanoma) 186 nM | GI50 (MCF7 breast) 422 nM | GI50 (MOLT-4 leukemia) 338 nM | GI50 (NCI-H460 lung) 100 nM | GI50 (PC-3 prostate) 217 nM | GI50 (RPMI-8226 leukemia) 403 nM | GI50 (SF-539 CNS) 410 nM | GI50 (SR leukemia) 96.1 nM
3970 nM: TGI (HL-60(TB) leukemia)
4570 nM: TGI (BT-549 breast)
6300 nM: TGI (SNB-75 CNS)
> 21600 nM: TGI (RXF 393 renal)
8990 nM: TGI (HS 578T breast)
> 31400 nM: TGI (KM12 colon)
7060 nM: TGI (NCI-H226 lung)
2250 nM: TGI (NCI-H460 lung)
3140 nM: TGI (HT29 colon)
5940 nM: TGI (COLO 205 colon)
2950 nM: TGI (NCI-H522 lung)
3160 nM: TGI (SF-539 CNS)
3300 nM: TGI (SR leukemia)
> 100000 nM: TGI (786-0 renal) | TGI (A549 NSCLC) | TGI (ACHN renal) | TGI (CCRF-CEM leukemia) | TGI (DU-145 prostate) | TGI (EKVX NSCLC) | TGI (HCT-116 colon) | TGI (HCT-15 colon) | TGI (HOP-62 NSCLC) | TGI (IGROV1 ovarian) | TGI (K-562 leukemia) | TGI (M14 melanoma) | TGI (MALME-3M melanoma) | TGI (MCF7 breast) | TGI (MDA-MB-231 breast) | TGI (MOLT-4 leukemia) | TGI (OVCAR-3 ovarian) | TGI (OVCAR-4 ovarian) | TGI (OVCAR-5 ovarian) | TGI (OVCAR-8 ovarian) | TGI (PC-3 prostate) | TGI (SF-268 CNS) | TGI (SK-MEL-28 melanoma) | TGI (SK-OV-3 ovarian) | TGI (SNB-19 CNS) | TGI (SW-620 colon) | TGI (T-47D breast) | TGI (TK-10 renal) | TGI (UACC-257 melanoma) | TGI (UO-31 renal)
2310 nM: TGI (SK-MEL-5 melanoma)
> 25000 nM: TGI (SN12C renal)
6440 nM: TGI (UACC-62 melanoma)
5820 nM: TGI (MDA-MB-435)
> 24200 nM: TGI (A498 renal)
1770 nM: TGI (LOX IMVI melanoma)
inactive: GI50 (A498 renal) 4020 nM | GI50 (A549 NSCLC) 735 nM | GI50 (ACHN renal) 676 nM | GI50 (BT-549 breast) 1060 nM | GI50 (CAKI-1 renal) 736 nM | GI50 (COLO 205 colon) 1020 nM | GI50 (DU-145 prostate) 830 nM | GI50 (EKVX NSCLC) 4090 nM | GI50 (HCC-2998 colon) 1270 nM | GI50 (HL-60(TB) leukemia) 643 nM | GI50 (HOP-62 NSCLC) 958 nM | GI50 (HOP-92 NSCLC) 1480 nM | GI50 (HS 578T breast) 1700 nM | GI50 (HT29 colon) 444 nM | GI50 (IGROV1 ovarian) 607 nM | GI50 (KM12 colon) 1380 nM | GI50 (M14 melanoma) 726 nM | GI50 (MALME-3M melanoma) 3650 nM | GI50 (MDA-MB-231 breast) 801 nM | GI50 (MDA-MB-435) 660 nM | GI50 (NCI-H226 lung) 1890 nM | GI50 (NCI-H522 lung) 700 nM | GI50 (NCI/ADR-RES ovarian) 735 nM | GI50 (OVCAR-3 ovarian) 1040 nM | GI50 (OVCAR-4 ovarian) 2580 nM | GI50 (OVCAR-5 ovarian) 1860 nM | GI50 (OVCAR-8 ovarian) 669 nM | GI50 (RXF 393 renal) 1450 nM | GI50 (SF-268 CNS) 1030 nM | GI50 (SF-295 CNS) 711 nM | GI50 (SK-MEL-2 melanoma) 3520 nM | GI50 (SK-MEL-28 melanoma) 943 nM | GI50 (SK-MEL-5 melanoma) 670 nM | GI50 (SK-OV-3 ovarian) 2110 nM | GI50 (SN12C renal) 1020 nM | GI50 (SNB-19 CNS) 683 nM | GI50 (SNB-75 CNS) 456 nM | GI50 (SW-620 colon) 568 nM | GI50 (T-47D breast) 1840 nM | GI50 (TK-10 renal) 3520 nM | GI50 (U251 CNS) 479 nM | GI50 (UACC-257 melanoma) 2310 nM | GI50 (UACC-62 melanoma) 532 nM | GI50 (UO-31 renal) 932 nM
> 23700 nM: TGI (SK-MEL-2 melanoma)
12700 nM: TGI (SF-295 CNS)
> 33300 nM: TGI (HCC-2998 colon)
